Results published in paper PMC3006138, “Fexinidazole – A New Oral Nitroimidazole Drug Candidate Entering Clinical Development for the Treatment of Sleeping Sickness” (PLoS Neglected Tropical Diseases, 2010).

Experiments:
in vitro = details: human
Description: Caco-2 [36] or MDR1-MDCK (Madin Darby canine kidney cells transfected with the human multidrug resistance MDR1 gene) cell monolayers were grown to confluence on collagen-coated, microporous, polycarbonate membranes in 12-well microtitre plates. The buffer for the donor chamber was Hanks balanced salt solution with 10 mM HEPES and 15 mM glucose at pH 7.4. The buffer in the receiver chamber contained the same with the addition of 1% bovine serum albumin (BSA). The test article was added at 5 µM in the assay buffer. […] After 2 h, duplicate aliquots were taken from the donor and receiver chambers and assayed via LC/MS. The apparent permeability and recovery were calculated using standard methods.
The objective of this study was to determine the bi-directional Caco-2 permeability and efflux limited absorption poten tial of thr ee test compoun ds. […]
4 . […] Th e test compound dosing concentrations were 5 µM in th e a ssay bu f fer . […] After two hours, a l iquot s wer e t a ken fr om th e r ecei ver an d don or cha m ber s. E a ch det erm ina ti on wa s per for m ed in dupl i cat e. Th e Lucifer Yellow flux was also measur ed for each mon olayer after bein g subjected to th e test compoun ds to en sur e n o damage was in flicted to th e cell mon olayer s durin g th e flux per iod. All samples wer e assayed by LC/MS/MS usin g electrospray ionization. Analytical conditions are outlined in Attachment I. The apparent permeability, Papp, and per cen t r ecover y wer e calculated as follows:
Papp = (dCr /dt) x Vr/(AxC) (1)
P er cen t Rec o ver y = 1 0 0 x ( ( V r x C rfi n a l ) + (Vd x Cd fi n a l ))/(Vd x C N) (2) […]
dCr /dt is th e slope of th e cumulative con cen tration in th e r eceiver compartment ver sus time in µM s -1. […]

[1] = Cardiovascular safety by telemetry; details: single oral dose
Description: Cardiovascular safety parameters were assessed in beagle dogs. Four adult (>1 year old) beagle dogs were given oral doses of fexinidazole at 100, 300 and 1000 mg/kg in an escalating dose design.
6.3. Treatment and Experimental Design
Experimental Day Treatmenta Dose (mg/kg) Volume Animal numbers (males) […]
a) Animals were treated following an escalating dose design with an adequate washout (at least 5 half lives of the longer lasting metabolite) between doses
Doses of 100, 300 and 1000 mg/kg of fexinidazole were selected based on the results of a […]
The oral route is that intende d for clinical administration.
6.3.1. Clinical Observation […]
dosing. Body weights are not reported here but they are archived with the study file.
6.3.2. Telemetry recordings
On the day of dosing, telemetry signals from each animal were collected continuously […]
The following parameters were calculated:
− Systolic blood pressure (SBP, mmHg)
− Diastolic blood pressure (DBP, mmHg)
− Average blood pressure (ABP, mmHg)
− Heart rate (HR, bpm, from the blood pressure signal)
− ECG intervals (RR, PR, QRS and QT, ms)
− Body temperature (BT, °C)
All the above-mentioned parameters were extracted automatically by the Notocord HEM acquisition software (Notocord, Croissy-sur-Seine, France) as the average value of 10-second recordings. […]

[2] = Preliminary embryo-foetal and early postnatal development study; format: in vivo, rat; details: pregnant rats
Description: In the rat study, fexinidazole was administered orally by gavage once a day from day 6 to day 17 of gestation or from day 6 of gestation to day 7 of lactation to 10 mated rat Crl:CD (SD)IGS BR rats[…]/group at doses of 50, 200, or 800 mg/kg/day. A control group received the vehicle alone (5% Tween 80/0.5% methocel).

[3] = parameters: method as in ref 2 (report no. 0259-2007-R); details: oral, normalized to 1 mg/kg, previous rat study, ref 2 (report no. 0259-2007-R); cited from earlier work

Work on `CSc1ccc(OCc2ncc([N+](=O)[O-])n2C)cc1` [Fexinidazole, 1-methyl-2-((p-(methylthio)phenoxy)methyl)-5-nitroimidazole] yielded a Papp A→B at 2 h, 5 µM (in vitro; Caco-2, pH 7.4) of 57.2 ×10⁻⁶ cm/s, a Papp B→A at 2 h, 5 µM (in vitro; Caco-2, pH 7.4) of 50.9 ×10⁻⁶ cm/s and an efflux ratio at 2 h, 5 µM (in vitro; Caco-2, pH 7.4) of 0.9. For the same compound, the recovery at 2 h, 5 µM (in vitro; Caco-2, pH 7.4, Percent Recovery A→B) was 72%, the recovery at 2 h, 5 µM (in vitro; Caco-2, pH 7.4, Percent Recovery B→A) was 81% and the “NOEL on body temperature” value [1] was 100 mg/kg. For the same compound, the “NOEL on cardiovascular parameters and ECG intervals” value [1] was 1000 mg/kg, the “effects on embryo-foetal and early postnatal development” value [2] was “no adverse effects on embryos/foetuses, parturition, and neonates” and the “AUC0-∞, norm” value [3] was 45 ng⋅h/mL.
